Laboratory results from PubChem BioAssay AID2060610 (Molecular Pharmacology Branch, DTP, NCI, 2025).
“And” between values parts separate entries of the source, which are not always exact repeats. Equal values may be shown once. One block for each compound: values may come before it.

Tested on: 616215-338-R-J1-PDC complex spheroids, viability % test/control
Assay: Anticancer human tumor 616215-338-R-J1-PDC patient-derived colon adenocarcinoma cell line growth inhibition [CLK]
Conditions: for viability, T/C: stronger effect = lower value
Method in brief: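 Patient-derived tumor cells grown as complex spheroids with HUVEC endothelial cells and mesenchymal stem cells, treated with drug combinations. Concentrations descend in half-log steps from near clinical Cmax, or from 10 microM if Cmax unknown.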

[1] = curve of first compound, second compound 0.0316 µM
[2] = curve of first compound, second compound 0.1 µM
[3] = curve of first compound, second compound 0.316 µM
[4] = curve of first compound, second compound 1 µM
[5] = curve of first compound, second compound 3.16 µM
[6] = curve of first compound, second compound 10 µM
[7] = second compound 0.0316 µM, first compound 0.0316 µM
[8] = second compound 0.0316 µM, first compound 0.1 µM
[9] = second compound 0.0316 µM, first compound 0.316 µM
[10] = second compound 0.0316 µM, first compound 1 µM
[11] = second compound 0.0316 µM, first compound 3.16 µM
[12] = second compound 0.0316 µM, first compound 10 µM
[13] = second compound 0.1 µM, first compound 0.0316 µM
[14] = second compound 0.1 µM, first compound 0.1 µM
[15] = second compound 0.1 µM, first compound 0.316 µM
[16] = second compound 0.1 µM, first compound 1 µM
[17] = second compound 0.1 µM, first compound 3.16 µM
[18] = second compound 0.1 µM, first compound 10 µM
[19] = second compound 0.316 µM, first compound 0.0316 µM
[20] = second compound 0.316 µM, first compound 0.1 µM
[21] = second compound 0.316 µM, first compound 0.316 µM
[22] = second compound 0.316 µM, first compound 1 µM
[23] = second compound 0.316 µM, first compound 3.16 µM
[24] = second compound 0.316 µM, first compound 10 µM
[25] = second compound 1 µM, first compound 0.0316 µM
[26] = second compound 1 µM, first compound 0.1 µM
[27] = second compound 1 µM, first compound 0.316 µM
[28] = second compound 1 µM, first compound 1 µM
[29] = second compound 1 µM, first compound 3.16 µM
[30] = second compound 1 µM, first compound 10 µM
[31] = second compound 3.16 µM, first compound 0.0316 µM
[32] = second compound 3.16 µM, first compound 0.1 µM
[33] = second compound 3.16 µM, first compound 0.316 µM
[34] = second compound 3.16 µM, first compound 1 µM
[35] = second compound 3.16 µM, first compound 3.16 µM
[36] = second compound 3.16 µM, first compound 10 µM
[37] = second compound 10 µM, first compound 0.0316 µM
[38] = second compound 10 µM, first compound 0.1 µM
[39] = second compound 10 µM, first compound 0.316 µM
[40] = second compound 10 µM, first compound 1 µM
[41] = second compound 10 µM, first compound 3.16 µM
[42] = second compound 10 µM, first compound 10 µM
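Also: spheroids exposed to agents for 7 days.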
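For viability, T/C in this document: 100% = DMSO vehicle wells.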

Compound: CCCS(=O)(=O)Nc1ccc(F)c(C(=O)c2c[nH]c3ncc(-c4ccc(Cl)cc4)cc23)c1F + CN1CCN(c2cc(C(=O)Nc3cc4cc(-c5cnn(C)c5)ccc4cn3)ccn2)CC1
IC50 [1]: 1510 nM
IC50 [2]: 1690 nM
IC50 [3]: < 31.6 nM
IC50 [4]: < 31.6 nM
IC50 [5]: < 31.6 nM
IC50 [6]: < 31.6 nM
viability, T/C [7]: 21.5%
viability, T/C [8]: 34.8%
viability, T/C [9]: 99.9%
viability, T/C [10]: 98.2%
viability, T/C [11]: 25.5%
viability, T/C [12]: 0.01%
viability, T/C [13]: 24.7%
viability, T/C [14]: 36.4%
viability, T/C [15]: 105%
viability, T/C [16]: 105%
viability, T/C [17]: 28.9%
viability, T/C [18]: 0.01%
viability, T/C [19]: 10.4%
viability, T/C [20]: 12.8%
viability, T/C [21]: 38.1%
viability, T/C [22]: 29.9%
viability, T/C [23]: 21%
viability, T/C [24]: 0%
viability, T/C [25]: 0.01%
viability, T/C [26]: 0.08%
viability, T/C [27]: 0.17%
viability, T/C [28]: 1.99%
viability, T/C [29]: 0.6%
viability, T/C [30]: 0.01%
viability, T/C [31]: 0.01%
viability, T/C [32]: 0.06%
viability, T/C [33]: 0.14%
viability, T/C [34]: 0.13%
viability, T/C [35]: 0.08%
viability, T/C [36]: 0%
viability, T/C [37]: 0.03%
viability, T/C [38]: 0.07%
viability, T/C [39]: 0.17%
viability, T/C [40]: 0.19%
viability, T/C [41]: 0.25%
viability, T/C [42]: 0%

Compound: CCc1c2c(nc3ccc(O)cc13)-c1cc3c(c(=O)n1C2)COC(=O)[C@]3(O)CC + CNC(=O)c1ccc(Nc2nc(OC3CCCC3)c3c(-c4ccc5nc(C)oc5c4)c[nH]c3n2)c(OC)c1
IC50 [1]: 13.5 nM
IC50 [2]: 7.31 nM
IC50 [3]: < 3.16 nM
IC50 [4]: 3.52 nM
IC50 [5]: < 3.16 nM
IC50 [6]: < 3.16 nM
viability, T/C (second compound 0.0316 µM, first compound 0.00316 µM): 111%
viability, T/C (second compound 0.0316 µM, first compound 0.01 µM): 51.1%
viability, T/C [7]: 35.8%
viability, T/C [8]: 25.6%
viability, T/C [9]: 14.6%
viability, T/C [10]: 9.31%
viability, T/C (second compound 0.1 µM, first compound 0.00316 µM): 56.9%
viability, T/C (second compound 0.1 µM, first compound 0.01 µM): 51.3%
viability, T/C [13]: 27.3%
viability, T/C [14]: 21.5%
viability, T/C [15]: 14.6%
viability, T/C [16]: 5.13%
viability, T/C (second compound 0.316 µM, first compound 0.00316 µM): 37.9%
viability, T/C (second compound 0.316 µM, first compound 0.01 µM): 38.9%
viability, T/C [19]: 24.8%
viability, T/C [20]: 20.2%
viability, T/C [21]: 14.6%
viability, T/C [22]: 1.77%
viability, T/C (second compound 1 µM, first compound 0.00316 µM): 53.5%
viability, T/C (second compound 1 µM, first compound 0.01 µM): 28.5%
viability, T/C [25]: 18.4%
viability, T/C [26]: 17.2%
viability, T/C [27]: 11.8%
viability, T/C [28]: 1.4%
viability, T/C (second compound 3.16 µM, first compound 0.00316 µM): 37%
viability, T/C (second compound 3.16 µM, first compound 0.01 µM): 27.3%
viability, T/C [31]: 17.1%
viability, T/C [32]: 14.9%
viability, T/C [33]: 11.8%
viability, T/C [34]: 2.58%
viability, T/C (second compound 10 µM, first compound 0.00316 µM): 40.6%
viability, T/C (second compound 10 µM, first compound 0.01 µM): 25.2%
viability, T/C [37]: 18.5%
viability, T/C [38]: 17.3%
viability, T/C [39]: 11.6%
viability, T/C [40]: 1.03%

Compound: Nc1ccccc1NC(=O)c1ccc(CNC(=O)OCc2cccnc2)cc1 + CNC(=O)c1ccc(Nc2nc(OC3CCCC3)c3c(-c4ccc5nc(C)oc5c4)c[nH]c3n2)c(OC)c1
IC50 [1]: 5080 nM
IC50 [2]: 85 nM
IC50 [3]: < 31.6 nM
IC50 [4]: < 31.6 nM
IC50 [5]: < 31.6 nM
IC50 [6]: < 31.6 nM
viability, T/C [7]: 86.2%
viability, T/C [8]: 82%
viability, T/C [9]: 80.2%
viability, T/C [10]: 96.7%
viability, T/C [11]: 72.5%
viability, T/C [12]: 17.7%
viability, T/C [13]: 56.1%
viability, T/C [14]: 48.9%
viability, T/C [15]: 37.3%
viability, T/C [16]: 36.1%
viability, T/C [17]: 36.7%
viability, T/C [18]: 10.6%
viability, T/C [19]: 40.7%
viability, T/C [20]: 39.4%
viability, T/C [21]: 35.9%
viability, T/C [22]: 34%
viability, T/C [23]: 29.3%
viability, T/C [24]: 7.21%
viability, T/C [25]: 42.7%
viability, T/C [26]: 36.7%
viability, T/C [27]: 32.8%
viability, T/C [28]: 29.1%
viability, T/C [29]: 24.8%
viability, T/C [30]: 6.92%
viability, T/C [31]: 35.1%
viability, T/C [32]: 35.8%
viability, T/C [33]: 28.5%
viability, T/C [34]: 26.9%
viability, T/C [35]: 22.7%
viability, T/C [36]: 3.91%
viability, T/C [37]: 34.3%
viability, T/C [38]: 30.8%
viability, T/C [39]: 28%
viability, T/C [40]: 24%
viability, T/C [41]: 23.8%
viability, T/C [42]: 3.95%

Compound: C=CC(=O)N1CCN(c2nc(=O)n(-c3c(C)ccnc3C(C)C)c3nc(-c4c(O)cccc4F)c(F)cc23)C(C)C1 (centres undefined) + CN1CCN(c2cc(C(=O)Nc3cc4cc(-c5cnn(C)c5)ccc4cn3)ccn2)CC1
IC50 [1]: > 10000 nM
IC50 [2]: > 10000 nM
IC50 [3]: < 31.6 nM
IC50 [4]: < 31.6 nM
IC50 [5]: < 31.6 nM
IC50 [6]: < 31.6 nM
viability, T/C [7]: 104%
viability, T/C [8]: 116%
viability, T/C [9]: 107%
viability, T/C [10]: 104%
viability, T/C [11]: 111%
viability, T/C [12]: 102%
viability, T/C [13]: 116%
viability, T/C [14]: 113%
viability, T/C [15]: 107%
viability, T/C [16]: 114%
viability, T/C [17]: 115%
viability, T/C [18]: 110%
viability, T/C [19]: 34.9%
viability, T/C [20]: 43%
viability, T/C [21]: 43.7%
viability, T/C [22]: 50.9%
viability, T/C [23]: 49.9%
viability, T/C [24]: 28.1%
viability, T/C [25]: 0.2%
viability, T/C [26]: 0.5%
viability, T/C [27]: 0.21%
viability, T/C [28]: 0.2%
viability, T/C [29]: 0.15%
viability, T/C [30]: 0.24%
viability, T/C [31]: 0.13%
viability, T/C [32]: 1.31%
viability, T/C [33]: 0.14%
viability, T/C [34]: 0.14%
viability, T/C [35]: 0.13%
viability, T/C [36]: 1.21%
viability, T/C [37]: 0.17%
viability, T/C [38]: 0.19%
viability, T/C [39]: 0.51%
viability, T/C [40]: 0.2%
viability, T/C [41]: 0.2%
viability, T/C [42]: 0.17%

The next lines start with results.

IC50 [1]: > 10000 nM
IC50 [2]: 3810 nM
IC50 [3]: < 31.6 nM
IC50 [4]: < 31.6 nM
IC50 [5]: < 31.6 nM
IC50 [6]: < 31.6 nM
Compound: CC(Nc1ccc2c(c1)OCCn1cc(N3C(=O)OCC3C(F)F)nc1-2)C(N)=O (centres undefined) + CNC(=O)c1ccc(Nc2nc(OC3CCCC3)c3c(-c4ccc5nc(C)oc5c4)c[nH]c3n2)c(OC)c1
viability, T/C [7]: 95.8%
viability, T/C [8]: 106%
viability, T/C [9]: 100%
viability, T/C [10]: 104%
viability, T/C [11]: 104%
viability, T/C [12]: 90.3%
viability, T/C [13]: 52.5%
viability, T/C [14]: 65.9%
viability, T/C [15]: 51.7%
viability, T/C [16]: 56.2%
viability, T/C [17]: 51.5%
viability, T/C [18]: 42.1%
viability, T/C [19]: 38.8%
viability, T/C [20]: 34.2%
viability, T/C [21]: 37.6%
viability, T/C [22]: 25.4%
viability, T/C [23]: 26.1%
viability, T/C [24]: 21.9%
viability, T/C [25]: 33%
viability, T/C [26]: 32.5%
viability, T/C [27]: 26.4%
viability, T/C [28]: 23.3%
viability, T/C [29]: 16.4%
viability, T/C [30]: 14.8%
viability, T/C [31]: 35.2%
viability, T/C [32]: 25.9%
viability, T/C [33]: 21.7%
viability, T/C [34]: 17.4%
viability, T/C [35]: 17%
viability, T/C [36]: 12.4%
viability, T/C [37]: 28%
viability, T/C [38]: 28.8%
viability, T/C [39]: 21.9%
viability, T/C [40]: 17.7%
viability, T/C [41]: 17%
viability, T/C [42]: 12.8%

IC50 (curve of compound): > 10000 nM
Compound: CC(Nc1ccc2c(c1)OCCn1cc(N3C(=O)OCC3C(F)F)nc1-2)C(N)=O (centres undefined)
viability, T/C (compound 0.0316 µM): 89.4% and 107%
viability, T/C (compound 0.1 µM): 99.5% and 103%
viability, T/C (compound 0.316 µM): 105% and 108%
viability, T/C (compound 1 µM): 101% and 100%
viability, T/C (compound 3.16 µM): 99.9% and 110%
viability, T/C (compound 10 µM): 90.6% and 100%

IC50 (curve of compound): > 10000 nM
Compound: O=C(c1cc(Cc2n[nH]c(=O)c3ccccc23)ccc1F)N1CCN(C(=O)C2CC2)CC1
viability, T/C (compound 0.0316 µM): 96.4% and 102%
viability, T/C (compound 0.1 µM): 96.1% and 94.5%
viability, T/C (compound 0.316 µM): 87.9% and 96.6%
viability, T/C (compound 1 µM): 88.2% and 93.6%
viability, T/C (compound 3.16 µM): 106% and 99.5%
viability, T/C (compound 10 µM): 97.4% and 99.5%
